# Test: recombinant UMI read abundance after kanamycin selection (control-corrected) (log10(CPM+1)); higher = more efficient recombination; extreme values may be limits of the assay; sequences stand for … in AGTGCAGAGAAAATCGGCCAGTTTTCTCTGCCTGCAGTCCGCATGCCGTGGGACCCCTTGGGTTCTAACCTGTTGCCTAGATTTATGCAGCGGACTGCCTTTCTCCCAAAGTGATAAACCGG…AGGTTGGTTTCACT; site = the 11-nt donor
# Procedure, shortened: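 In a pooled Escherichia coli screen for the IS621 bridge recombinase, donor and donor-binding-loop pairs were each placed with a 12-nt UMI on a plasmid bearing a promoterless kanamycin gene. This library was co-electroporated with a target plasmid encoding a fixed target and T7-inducible recombinase, and cells were plated either on IPTG (0.07 mM) plus kanamycin or without selection, in two replicates each. Recombinant UMIs were PCR-amplified across the donor–target junction and sequenced, and counts were converted to CPM, averaged over replicates, scaled by control-derived factors and reported as log10(CPM+1).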
row,Sequence,recombinant UMI read abundance (log10)
1,AGCTTAGCATGGACCGGTTTTCCCGGTAATCCGTATTTGGG (site AGCTCAGCTCC),0.0187
2,AGCTTAGCATGGACCGGTTTTCCCGGTAATCCGTATTTGGG (site AGCTGAGCTCC),0.034
3,AGCTTAGCATGGACCGGTTTTCCCGGTAATCCGTATTTGGG (site AGCTTAGCTCC),0.0198
4,AGGAAACCATGGACCGGTTTTCCCGGTAATCCGTATTTGTT (site AGGAAACCTAA),0
5,AGGAAACCATGGACCGGTTTTCCCGGTAATCCGTATTTGTT (site CGGAATCCTAA),0
6,AGGAACACATGGACCGGTTTTCCCGGTAATCCGTATTTGAA (site AGGAACACTTT),2.29
7,AGGAACACATGGACCGGTTTTCCCGGTAATCCGTATTTGAA (site AGGAAGACTTG),0
8,AGGAACCCATGGACCGGTTTTCCCGGTAATCCGTATTTGCA (site AGGAACCCTTG),0.786
9,AGGAACCCATGGACCGGTTTTCCCGGTAATCCGTATTTGCA (site AGGAAGACTTG),0
10,AGGAAGACATGGACCGGTTTTCCCGGTAATCCGTATTTGAA (site AGGAAGACTTA),0.985
11,AGGAAGACATGGACCGGTTTTCCCGGTAATCCGTATTTGAA (site AGGAAGACTTC),0.592
12,AGGAAGACATGGACCGGTTTTCCCGGTAATCCGTATTTGAA (site AGGAAGACTTG),0.298
13,AGGAAGACATGGACCGGTTTTCCCGGTAATCCGTATTTGAA (site AGGAAGACTTT),2.37
14,AGGAAGACATGGACCGGTTTTCCCGGTAATCCGTATTTGCA (site AAGAACACTTG),0
15,AGGAAGACATGGACCGGTTTTCCCGGTAATCCGTATTTGCA (site AAGAAGACTGG),0
16,AGGAAGACATGGACCGGTTTTCCCGGTAATCCGTATTTGCA (site AAGAAGACTTG),1.06
17,AGGAAGACATGGACCGGTTTTCCCGGTAATCCGTATTTGCA (site AAGAAGACTTT),0.0128
18,AGGAAGACATGGACCGGTTTTCCCGGTAATCCGTATTTGCA (site AAGAAGCCTTG),0
19,AGGAAGACATGGACCGGTTTTCCCGGTAATCCGTATTTGCA (site AAGAGGACTTG),0.101
20,AGGAAGACATGGACCGGTTTTCCCGGTAATCCGTATTTGCA (site AAGTAGACTTG),1.23
21,AGGAAGACATGGACCGGTTTTCCCGGTAATCCGTATTTGCA (site AATAAGACTTG),1.43
22,AGGAAGACATGGACCGGTTTTCCCGGTAATCCGTATTTGCA (site ACAAAGACTTG),1.25
23,AGGAAGACATGGACCGGTTTTCCCGGTAATCCGTATTTGCA (site ACGAAAACTTG),0
24,AGGAAGACATGGACCGGTTTTCCCGGTAATCCGTATTTGCA (site ACGAAGACTCG),0.0101
25,AGGAAGACATGGACCGGTTTTCCCGGTAATCCGTATTTGCA (site ACGAAGACTTA),0.00527

row,Sequence,recombinant UMI read abundance (log10)
1,AGGAAGACATGGACCGGTTTTCCCGGTAATCCGTATTTGCA (site ACGAAGACTTG),0.832
2,AGGAAGACATGGACCGGTTTTCCCGGTAATCCGTATTTGCA (site ACGAAGTCTTG),0
3,AGGAAGACATGGACCGGTTTTCCCGGTAATCCGTATTTGCA (site ACGATGACTTG),0
4,AGGAAGACATGGACCGGTTTTCCCGGTAATCCGTATTTGCA (site ACGGAGACTTG),2.51
5,AGGAAGACATGGACCGGTTTTCCCGGTAATCCGTATTTGCA (site AGAAAAACTTG),0
6,AGGAAGACATGGACCGGTTTTCCCGGTAATCCGTATTTGCA (site AGAAAGACTCG),0.0197
7,AGGAAGACATGGACCGGTTTTCCCGGTAATCCGTATTTGCA (site AGAAAGACTTA),0.795
8,AGGAAGACATGGACCGGTTTTCCCGGTAATCCGTATTTGCA (site AGAAAGACTTG),2.32
9,AGGAAGACATGGACCGGTTTTCCCGGTAATCCGTATTTGCA (site AGAAAGTCTTG),0.0125
10,AGGAAGACATGGACCGGTTTTCCCGGTAATCCGTATTTGCA (site AGAATGACTTG),0.777
11,AGGAAGACATGGACCGGTTTTCCCGGTAATCCGTATTTGCA (site AGAGAGACTTG),1.79
12,AGGAAGACATGGACCGGTTTTCCCGGTAATCCGTATTTGCA (site AGCAAGACTAG),0.0137
13,AGGAAGACATGGACCGGTTTTCCCGGTAATCCGTATTTGCA (site AGCAAGACTTC),0.00298
14,AGGAAGACATGGACCGGTTTTCCCGGTAATCCGTATTTGCA (site AGCAAGACTTG),0.723
15,AGGAAGACATGGACCGGTTTTCCCGGTAATCCGTATTTGCA (site AGCAAGGCTTG),0.00883
16,AGGAAGACATGGACCGGTTTTCCCGGTAATCCGTATTTGCA (site AGCAATACTTG),0
17,AGGAAGACATGGACCGGTTTTCCCGGTAATCCGTATTTGCA (site AGCACGACTTG),0
18,AGGAAGACATGGACCGGTTTTCCCGGTAATCCGTATTTGCA (site AGCCAGACTTG),0.654
19,AGGAAGACATGGACCGGTTTTCCCGGTAATCCGTATTTGCA (site AGGAAAACTCG),0
20,AGGAAGACATGGACCGGTTTTCCCGGTAATCCGTATTTGCA (site AGGAAAACTTA),0
21,AGGAAGACATGGACCGGTTTTCCCGGTAATCCGTATTTGCA (site AGGAAAACTTG),0.57
22,AGGAAGACATGGACCGGTTTTCCCGGTAATCCGTATTTGCA (site AGGAAATCTTG),0
23,AGGAAGACATGGACCGGTTTTCCCGGTAATCCGTATTTGCA (site AGGAACACTGG),0.014
24,AGGAAGACATGGACCGGTTTTCCCGGTAATCCGTATTTGCA (site AGGAACACTTG),1.51
25,AGGAAGACATGGACCGGTTTTCCCGGTAATCCGTATTTGCA (site AGGAACACTTT),0.0161

row,Sequence,recombinant UMI read abundance (log10)
1,AGGAAGACATGGACCGGTTTTCCCGGTAATCCGTATTTGCA (site AGGAACCCTTG),0
2,AGGAAGACATGGACCGGTTTTCCCGGTAATCCGTATTTGCA (site AGGAAGACTAC),0.00471
3,AGGAAGACATGGACCGGTTTTCCCGGTAATCCGTATTTGCA (site AGGAAGACTAG),0.102
4,AGGAAGACATGGACCGGTTTTCCCGGTAATCCGTATTTGCA (site AGGAAGACTCA),0.0159
5,AGGAAGACATGGACCGGTTTTCCCGGTAATCCGTATTTGCA (site AGGAAGACTCG),0.784
6,AGGAAGACATGGACCGGTTTTCCCGGTAATCCGTATTTGCA (site AGGAAGACTGG),1.34
7,AGGAAGACATGGACCGGTTTTCCCGGTAATCCGTATTTGCA (site AGGAAGACTGT),0
8,AGGAAGACATGGACCGGTTTTCCCGGTAATCCGTATTTGCA (site AGGAAGACTTA),1.62
9,AGGAAGACATGGACCGGTTTTCCCGGTAATCCGTATTTGCA (site AGGAAGACTTC),0.0105
10,AGGAAGACATGGACCGGTTTTCCCGGTAATCCGTATTTGCA (site AGGAAGACTTG),2.88
11,AGGAAGACATGGACCGGTTTTCCCGGTAATCCGTATTTGCA (site AGGAAGACTTT),2.15
12,AGGAAGACATGGACCGGTTTTCCCGGTAATCCGTATTTGCA (site AGGAAGCCTGG),0
13,AGGAAGACATGGACCGGTTTTCCCGGTAATCCGTATTTGCA (site AGGAAGCCTTG),0
14,AGGAAGACATGGACCGGTTTTCCCGGTAATCCGTATTTGCA (site AGGAAGCCTTT),0
15,AGGAAGACATGGACCGGTTTTCCCGGTAATCCGTATTTGCA (site AGGAAGGCTAG),0
16,AGGAAGACATGGACCGGTTTTCCCGGTAATCCGTATTTGCA (site AGGAAGGCTTC),0
17,AGGAAGACATGGACCGGTTTTCCCGGTAATCCGTATTTGCA (site AGGAAGGCTTG),1.84
18,AGGAAGACATGGACCGGTTTTCCCGGTAATCCGTATTTGCA (site AGGAAGTCTCG),0
19,AGGAAGACATGGACCGGTTTTCCCGGTAATCCGTATTTGCA (site AGGAAGTCTTA),0.81
20,AGGAAGACATGGACCGGTTTTCCCGGTAATCCGTATTTGCA (site AGGAAGTCTTG),1.05
21,AGGAAGACATGGACCGGTTTTCCCGGTAATCCGTATTTGCA (site AGGAATACTAG),0
22,AGGAAGACATGGACCGGTTTTCCCGGTAATCCGTATTTGCA (site AGGAATACTTC),0
23,AGGAAGACATGGACCGGTTTTCCCGGTAATCCGTATTTGCA (site AGGAATACTTG),1.12
24,AGGAAGACATGGACCGGTTTTCCCGGTAATCCGTATTTGCA (site AGGAATGCTTG),0
25,AGGAAGACATGGACCGGTTTTCCCGGTAATCCGTATTTGCA (site AGGACGACTAG),0.0203

# Reference: the supplement of paper PMC11208160
